In general, IC50 refers to the point on the concentration scale where inhibition reaches its midpoint.

Like-named read-outs stand apart in the source and are kept apart here.

In assay [1] the test system is HCT116 MTAP null cells. Description: HCT116 MTAP null cell line proliferation (CellTiter-Glo cell viability, 6 days). Type of assay: cell-based. The conditions noted are these: HCT116 MTAP null cells, 6 days of treatment, CellTiter-Glo cell viability, read-out: HCT-116 MTAP null IC50. Summed up: (§1)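 Isogenic HCT116 pair (parent and MTAP double-allele knockout) in RPMI 1640 + 10% FBS, exposed 6 days to compound: 8–9-point 1:3 dilutions from 1 or 10 μM top, or 22-point 1:2 dilutions from 10 or 50 μM top. CellTiter-Glo luminescence; IC50 from sigmoidal fit (Hill −1) or 4-parameter logistic.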
Background: ATP-based viability assays read luminescence as a measure of living cells.

The subject of assay [2] is HCT116 WT cells. Description: HCT116 WT cell line proliferation (CellTiter-Glo cell viability, 6 days). It counts as cell-based. The conditions noted are these: HCT116 WT (parent) cells, 6 days of treatment, CellTiter-Glo cell viability, read-out: HCT-116 WT IC50. In outline: as §1

For `C[C@@H]1OCc2c1c(N)nc1cnc(C(=O)N3CCOC[C@H]3c3ccc(F)c(C(F)(F)F)c3)cc21` (racemic) [Example 355, ((3S)-4-amino-3-methyl-1,3-dihydrofuro[3,4-c][1,7]naphthyridin-8-yl)((3R)-3-(4-fluoro-3-(trifluoromethyl)phenyl)-4-morpholinyl)methanone and ((3S)-4-amino-3-methyl-1,3-dihydrofuro[3,4-c][1,7]naphthyridin-8-yl)((3S)-3-(4-fluoro-3-(trifluoromethyl)phenyl)-4-morpholinyl)methanone], the IC50 in assay [1] (HCT116-MTAP null, 144 h) is 4060 nM; in assay [2] (Homo sapiens, HCT-116, 144 h) it was over 10000 nM.

On to `Cn1ncc2c(N)nc3ccc(C(=O)N4CCOC[C@@H]4c4ccc(S(F)(F)(F)(F)F)cc4)cc3c21` [Example 447, (4-amino-1-methyl-1H-pyrazolo [4,3-c]quinolin-8-yl)((3S)-3-(4-(pentafluoro-lambda~6~-sulfanyl)phenyl)-4-morpholinyl)methanone], for which the IC50 in assay [1] (HCT116-MTAP null, 144 h) was found to be 13 nM; in assay [2] (Homo sapiens, HCT-116, 144 h), 602 nM.

Consider `Nc1nc2ccc(C(=O)N3CCOCC3c3ccccc3)cc2c2c1COC2` (racemic) [Example 493, (4-amino-1,3-dihydrofuro[3,4-c]quinolin-8-yl)-[rac-(3S)-3-phenylmorpholin-4-yl]methanone], for which the IC50 in assay [1] (HCT116-MTAP null, 144 h) was over 1000 nM; in assay [2] (Homo sapiens, HCT-116, 144 h), over 10000 nM.

On to `Nc1nc2cnc(C(=O)N3CCC(F)(F)C[C@H]3c3ccc(C(F)(F)F)cc3)cc2c2c1COC2` (single isomer, unassigned) [Example 599], for which the IC50 is over 10000 nM in assay [1] (HCT116-MTAP null, 144 h) and over 10000 nM in assay [2] (Homo sapiens, HCT-116, 144 h).

With `Nc1nc2cnc(C(=O)N3CCOC[C@@H]3c3ccc(CC(F)(F)F)cc3)cc2c2c1COC2` (single isomer, unassigned) [Example 604], the IC50 was found to be 87 nM in assay [1] (HCT116-MTAP null, 144 h) and 7270 nM in assay [2] (Homo sapiens, HCT-116, 144 h).

With `C[C@H]1OCc2c1c(N)nc1ccc(C(=O)N3CCOC[C@@H]3c3ccc(OC(F)(F)F)cc3)cc21` (single isomer, unassigned) [Example 568], the IC50 stood at 36 nM in assay [1] (HCT116-MTAP null, 144 h) and 1790 nM in assay [2] (Homo sapiens, HCT-116, 144 h).

In the case of `Nc1nc2ccc(C(=O)N3CCOC[C@@H]3c3ccc(C(F)(F)F)cn3)cc2c2c1COC2` (single isomer, unassigned) [Example 570], the IC50 in assay [1] (HCT116-MTAP null, 144 h) turned out to be 221 nM; in assay [2] (Homo sapiens, HCT-116, 144 h), 8760 nM.

On to “(4-amino-1-methyl-1H- pyrazolo[4,3- c][1,7]naphthyridin-8- yl)((3R)-3-(4- (trifluoromethyl)benzyl)-1- pyrrolidinyl)methanone and (4-amino-1-methyl-1H- pyrazolo[4,3- c][1,7]naphthyridin-8- yl)((3S)-3-(4- (trifluoromethyl)benzyl)-1- pyrrolidinyl)methanone [Example 432]”, for which the values for the IC50 in assay [1] and in assay [2] were 616 nM and 22700 nM, respectively.

Regarding `C[C@H]1OCc2c1c(N)nc1cnc(C(=O)N3CCOC[C@H]3c3ccc(F)c(C(F)(F)F)c3)cc21` (racemic) [Example 356, ((3R)-4-amino-3-methyl-1,3-dihydrofuro[3,4-c][1,7]naphthyridin-8-yl)((3R)-3-(4-fluoro-3-(trifluoromethyl)phenyl)-4-morpholinyl)methanone and ((3R)-4-amino-3-methyl-1,3-dihydrofuro[3,4-c][1,7]naphthyridin-8-yl)((3S)-3-(4-fluoro-3-(trifluoromethyl)phenyl)-4-morpholinyl)methanone], the IC50 was 257 nM in assay [1] (HCT116-MTAP null, 144 h) and over 10000 nM in assay [2] (Homo sapiens, HCT-116, 144 h).

Consider `Nc1nc2cnc(C(=O)N3CCOC[C@@H]3c3cnc(C(F)(F)F)cn3)cc2c2c1COC2` (single isomer, unassigned) [Example 613], for which the IC50 is 1830 nM in assay [1] (HCT116-MTAP null, 144 h) and over 10000 nM in assay [2] (Homo sapiens, HCT-116, 144 h).

For the molecule `C[C@@H]1COC[C@H](c2ccc(OC(F)(F)F)cc2)N1C(=O)c1cc2c3c(c(N)nc2cn1)COC3` [Example 525, (4-amino-1,3-dihydrofuro[3,4-c][1,7]naphthyridin-8-yl)((3R,5S)-3-methyl-5-(4-(trifluoromethoxy)phenyl)-4-morpholinyl)methanone], the half-inhibitory concentration (IC50) stood at 19 nM in assay [1] (HCT116-MTAP null, 144 h) and 372 nM in assay [2] (Homo sapiens, HCT-116, 144 h).

In the case of `C[C@H]1CN(C(=O)c2ccc3nc(N)c4c(c3c2)COC4)[C@H](c2ccc(OC(F)(F)F)cc2)CO1` (single isomer, unassigned) [Example 586], the IC50 was found to be 82 nM in assay [1] (HCT116-MTAP null, 144 h) and 2920 nM in assay [2] (Homo sapiens, HCT-116, 144 h).

Regarding `Cn1ncc2c(N)nc3ccc(C(=O)N4CCOC[C@@H]4c4ccc(C(F)(F)F)cc4)cc3c21` [Example 521, (4-amino-1-methyl-1H-pyrazolo[4,3-c]quinolin-8-yl)((3S)-3-(4-(trifluoromethyl)phenyl)-4-morpholinyl)methanone], the IC50 was 30 nM in assay [1] (HCT116-MTAP null, 144 h) and 2080 nM in assay [2] (Homo sapiens, HCT-116, 144 h).

As for `Nc1nc2ccc(C(=O)N3CCOCC3c3ccc(OC(F)F)cc3)cc2c2c1COC2` (racemic) [Example 496, (4-amino-1,3-dihydrofuro[3,4-c]quinolin-8-yl)((3R)-3-(4-(difluoromethoxy)phenyl)-4-morpholinyl)methanone and (4-amino-1,3-dihydrofuro[3,4-c]quinolin-8-yl)((3S)-3-(4-(difluoromethoxy)phenyl)-4-morpholinyl)methanone], the IC50 in assay [1] (HCT116-MTAP null, 144 h) is 486 nM; in assay [2] (Homo sapiens, HCT-116, 144 h) it was 19800 nM.

Regarding `N#Cc1cnc(C2COCCN2C(=O)c2ccc3nc(N)c4c(c3c2)COC4)cc1Cl` (racemic) [Example 492, 4-chloro-6-[rac-(3S)-4-(4-amino-1,3-dihydrofuro[3,4-c]quinoline-8-carbonyl)morpholin-3-yl]pyridine-3-carbonitrile], the IC50 in assay [1] (HCT116-MTAP null, 144 h) came to 764 nM; in assay [2] (Homo sapiens, HCT-116, 144 h) it was 318 nM.

With `Nc1nc2cnc(C(=O)N3CCOC[C@@H]3c3ccc(C(F)(F)F)cc3)cc2c2c1CCO2` [Example 404, (4-amino-2,3-dihydrofuro[3,2-c][1,7]naphthyridin-8-yl)((3S)-3-(4-(trifluoromethyl)phenyl)-4-morpholinyl)methanone], the IC50 in assay [1] (HCT116-MTAP null, 144 h) amounted to 872 nM; in assay [2] (Homo sapiens, HCT-116, 144 h), 9760 nM.

Regarding `C[C@@H]1COC[C@H](c2ccc(C(F)(F)F)cn2)N1C(=O)c1cc2c3c(c(N)nc2cn1)CCC3` [Example 515, (6-amino-8,9-dihydro-7H-cyclopenta[c][1,7]naphthyridin-2-yl)((3R,5S)-3-methyl-5-(5-(trifluoromethyl)-2-pyridinyl)-4-morpholinyl)methanone], the IC50 in assay [1] (HCT116-MTAP null, 144 h) turned out to be 47 nM; in assay [2] (Homo sapiens, HCT-116, 144 h), 541 nM.

For the molecule `CC1COC[C@H](c2ccc(C(F)(F)F)cn2)N1C(=O)c1ccc2nc(N)c3c(c2c1)COC3` (single isomer, unassigned) [Example 583], the IC50 in assay [1] (HCT116-MTAP null, 144 h) was found to be 17 nM; in assay [2] (Homo sapiens, HCT-116, 144 h), 616 nM.

On to `C[C@@H]1COC[C@H](c2ccc(OC(F)F)nn2)N1C(=O)c1cc2c3c(c(N)nc2cn1)COC3` (racemic) [Example 381, (4-amino-1,3-dihydrofuro[3,4-c][1,7]naphthyridin-8-yl)((3R,5S)-3-(6-(difluoromethoxy)-3-pyridazinyl)-5-methyl-4-morpholinyl)methanone and (4-amino-1,3-dihydrofuro[3,4-c][1,7]naphthyridin-8-yl)((3S,5R)-3-(6-(difluoromethoxy)-3-pyridazinyl)-5-methyl-4-morpholinyl)methanone], for which the IC50 in assay [1] stood at 84 nM; in assay [2], 2570 nM.

Regarding `Nc1nc2ccc(C(=O)N3CCOCC3c3ccc(F)c(C(F)(F)F)c3)cc2c2c1COC2` (racemic) [Example 348, (4-amino-1,3-dihydrofuro[3,4-c]quinolin-8-yl)((3R)-3-(4-fluoro-3-(trifluoromethyl)phenyl)-4-morpholinyl)methanone and (4-amino-1,3-dihydrofuro[3,4-c]quinolin-8-yl)((3S)-3-(4-fluoro-3-(trifluoromethyl)phenyl)-4-morpholinyl)methanone], the IC50 amounted to 784 nM in assay [1] (HCT116-MTAP null, 144 h) and 13000 nM in assay [2] (Homo sapiens, HCT-116, 144 h).

In the case of `C[C@H]1OCc2c1c(N)nc1ccc(C(=O)N3C[C@H](c4ccc(F)cc4)C(C)(C)C3)cc21` (single isomer, unassigned) [Example 463], the IC50 in assay [1] (HCT116-MTAP null, 144 h) amounted to 122 nM; in assay [2] (Homo sapiens, HCT-116, 144 h) it was 6550 nM.

Take `C[C@@H]1COC[C@H](c2ccc(C(F)(F)F)cn2)N1C(=O)c1cc2c(cc1F)nc(N)c1c2cnn1C` [Example 517, (4-amino-7-fluoro-3-methyl-3H-pyrazolo[3,4-c]quinolin-8-yl)((3R,5S)-3-methyl-5-(5-(trifluoromethyl)-2-pyridinyl)-4-morpholinyl)methanone]: the IC50 in assay [1] (HCT116-MTAP null, 144 h) came to 8 nM; in assay [2] (Homo sapiens, HCT-116, 144 h), 151 nM.

Consider `Nc1nc2ccc(C(=O)N3CCCC[C@@H]3c3ccc(C(F)(F)F)cc3)cc2c2ccsc12` (single isomer, unassigned) [Example 490], for which the IC50 in assay [1] (HCT116-MTAP null, 144 h) is over 1000 nM; in assay [2] (Homo sapiens, HCT-116, 144 h), 4800 nM.

Take `C[C@@H]1COC[C@H](c2ccc(C(F)(F)F)nc2)N1C(=O)c1cc2c3c(c(N)nc2cn1)COC3` [Example 524, (4-amino-1,3-dihydrofuro[3,4-c][1,7]naphthyridin-8-yl)((3R,5S)-3-methyl-5-(6-(trifluoromethyl)-3-pyridinyl)-4-morpholinyl)methanone]: the IC50 in assay [1] (HCT116-MTAP null, 144 h) turned out to be 31 nM; in assay [2] (Homo sapiens, HCT-116, 144 h), 1240 nM.

Take `Nc1nc2cnc(C(=O)N3CCOC[C@@H]3c3ccc(OC(F)(F)F)cc3)cc2c2c1CCC2` [Example 514, (6-amino-8,9-dihydro-7H-cyclopenta[c][1,7]naphthyridin-2-yl)((3S)-3-(4-(trifluoromethoxy)phenyl)-4-morpholinyl)methanone]: the IC50 in assay [1] (HCT116-MTAP null, 144 h) was 210 nM; in assay [2] (Homo sapiens, HCT-116, 144 h) it was 2590 nM.

These data come from US11845760B2, “PRMT5 inhibitors” (AMGEN INC., priority 2020, dated 2023).
